Measured values taken from patent US4208424A, “Lipogenesis inhibition by certain esters of substituted benzodioxincarboxylic acids” (Shell Oil Company, priority 1979, dated 1980).

Tested on: lipogenesis in swine adipose tissue
Experiment: inhibition of lipogenesis (incorporation of radioactive glucose carbon into lipid) in swine adipose tissue slices
Assay type: cell-based
Conditions: 100 micrograms per milliliter, 37° C., 2 hours, glucose-U^14 C, insulin, 5% DMSO, triplicate
Excerpt: The manner in which they cause this effect is not known with certainty; it is believed that they interfere with the synthesis of fatty acids in the tissues. Their effectiveness for this purpose has been ascertained by immersing samples of swine adipose tissue in a liquid medium containing radioactive glucose and the test chemical for a period of time, then isolating the lipid from the treated tissue and determining the incorporation of the radioactive carbon into lipid by means of scintillation counting techniques. These tests were conducted in swine adipose tissues because in swine, the primary site of lipogenesis--i.e., fatty acid synthesis--appears to be adipose tissue.
Described in more detail, the tests were conducted according to the following general procedure:
150 milligrams of slices of swine adipose tissue were incubated at 37° C. for 2 hours with shaking in 3 milliliters of Krebs-Ringer bicarbonate solution containing one-half the normal calcium ion concentration, 60 micromoles of glucose, 0.5 micro-Curie of glucose-U^14 C, and 300 microunits of insulin, and 5% dimethyl sulfoxide (DMSO). The test compounds were added as a solution or suspension in DMSO and were present at a concentration of 100 micrograms per milliliter of the incubation mixture.
The incubation was terminated by addition of 0.25 milliliter of 1 N sulfuric acid. The resulting mixture was extracted with a total of 25 milliliters of chloroform/methanol (2:1 v/v). The extracts were washed according to Folch et al. (J. Biol. Chem. 226, 497-509, (1957)), air dried, and counted in a liquid scintillation counter with 15 m milliliters of counting fluid (two parts toluene containing 0.4% w/v New England Nuclear Omnifluor/1 part Triton X-100). The tests were conducted in triplicate and were accompanied by control tests in which all ingredients,proportions and conditions were the same except that no test compound was included. From the data obtained were calculated the percent inhibition of lipid synthesis by the test compounds in each case. The data obtained from the tests are set out in Table 1, as the percent inhibition of lipogenesis compared to the results obtained in the control tests wherein only the test compound was omitted.

| Compound | Percent Inhibition (of lipogenesis compared to control tests) |
| --- | --- |
| Ethyl 2,3-dihydro-6(and 7)-methyl-1,4-benzodioxin-2-carboxylate [Compound 2] | 30% |
| Ethyl 2,3-dihydro-6(and 7)-methoxy-1,4-benzodioxin-2-carboxylate [Compound 10] | 85% |
| CCOC(=O)C1COc2cc(C)c(C)cc2O1 (stereo not shown) [Compound 6, Ethyl 2,3-dihydro-6,7-dimethyl-1,4-benzodioxin-2-carboxylate] | 29% |
| CCOC(=O)C1COc2cc(-c3ccccc3)ccc2O1 (stereo not shown) [Compound 7, Ethyl 2,3-dihydro-6-phenyl-1,4-benzodioxin-2-carboxylate] | 21% |
| Ethyl 6(and 7)-bromo-2,3-dihydro-1,4-benzodioxin-2-carboxylate [Compound 4] | 43% |
| CCOC(=O)C1COc2ccc(C(C)O)cc2O1 (stereo not shown) [Compound 9, Ethyl 2,3-dihydro-7-(1-hydroxyethyl)-1,4-benzodioxin-2-carboxylate] | 90% |
| CCOC(=O)C1COc2ccc(-c3ccccc3)cc2O1 (stereo not shown) [Compound 8, Ethyl 2,3-dihydro-7-phenyl-1,4-benzodioxin-2-carboxylate] | 28% |
| CCOC(=O)C1COc2ccccc2O1 (stereo not shown) [Compound 1, Ethyl 2,3-dihydro-1,4-benzodioxin-2-carboxylate] | 22% |
| Ethyl 2,3-dihydro-6(and 7)-fluoro-1,4-benzodioxin-2-carboxylate [Compound 3] | 48% |
| Ethyl 2,3-dihydro-8(and 5)-methoxy-1,4-benzodioxin-2-carboxylate [Compound 5] | 86% |
